From ChEMBL document CHEMBL1129326, “Inhibition of DNA topoisomerase II by azaelliptitoxins functionalized in the variable substituent domain” (J Med Chem, 1996) come the findings set out here.

This experiment addresses DNA topoisomerase II (Homo sapiens) (UniProt P11388+Q02880). Description: Inhibitory activity against human DNA Topoisomerase-2, activity is expressed as relative DNA cleavage compared to Azatoxin by densitometric analysis; inactive. The experiment is classed as protein assay.

Active and inactive are the calls of the source. No cut-off for these calls is given here.

Take `COc1cc([C@@H]2c3[nH]c4ccccc4c3[C@@H](Nc3cc(OC)c(OC)c(OC)c3)[C@H]3COC(=O)N23)cc(OC)c1O`: the outcome was inactive.

As to `COc1cc([C@@H]2c3[nH]c4ccccc4c3[C@@H](OC)[C@H]3COC(=O)N23)cc(OC)c1O`, the outcome was inactive.

With `COc1cc(N[C@@H]2c3c([nH]c4ccccc34)[C@@H](c3cc(OC)c(O)c(OC)c3)N3C(=O)OC[C@H]23)ccc1O`, the result was inactive.
